According to PMC9571063 (Molecules, 2022):
Like-named read-outs stand apart in the source and are kept apart here.

Columns and labels:
Rn_DYRK1A = target: T1, Rn_DYRK1A (Rattus norvegicus, UniProt Q63470); experiment: ADP-Glo kinase assay, primary screen; type: biochemical; settings: n=2, read-out: % of residual activity Rn_DYRK1A
T1 construct: host or cells: bacteria

HsCLK1 = target: T2, HsCLK1 (Homo sapiens, UniProt P49759); experiment: ADP-Glo kinase assay; type: biochemical
T2 construct: host or cells: Sf9 insect cells (baculovirus)

MmCLK1 = target: T3, MmCLK1 (Mus musculus, UniProt P22518); experiment: ADP-Glo kinase assay; type: biochemical
T3 construct: host or cells: bacteria

Hs_PIM1 = target: T4, Hs_PIM1 (Homo sapiens, UniProt P11309); experiment: ADP-Glo kinase assay, primary screen; type: biochemical; settings: n=2, read-out: % of residual activity Hs_PIM1
T4 construct: host or cells: Sf9 insect cells (baculovirus)

Human skin fibroblasts = experiment: cytotoxic assay, nuclei count (Hoechst, HCS); type: cell-based; settings: summary of Table S2
Experimental: (§1) To complete our study, we performed a cytotoxicity screening of the 15 molecules, investigating 7 representative cancer cell lines. The compound’s effect on cell viability was evaluated on Huh-7 (hepatocellular carcinoma), CaCo2, HCT-116 (colorectal adenocarcinoma), MCF7, MDA-MB231, MDA-MB468 (breast carcinoma), PC3 (prostate carcinoma) and NCI-H727 (lung carcinoid). Human skin fibroblasts were used as reference for non-cancerous cells. Roscovitine, Doxorubicin and Taxol were used as positive controls. The cells were treated for 48 h with 25 µM compounds and fixed in cooled 90% ethanol/5% acetic acid for 20 min. The nuclei were stained with Hoechst 33342 and counted using HCS technology.
(§2) HuH7, CaCo-2, MDA-MB-231, HCT116, PC3, MCF7 and NCI-H727 cancer cell lines were obtained from the ECACC collection (Porton Down, UK). Cells were grown at 37 °C, 5% CO2 in ECACC recommended media: DMEM for HuH7, MDA-MB-231 and fibroblast, EMEM for MCF7and CaCo-2, McCoy’s for HCT116 and RPMI for PC3 and NCI-H727. All culture media were supplemented with 10% of FBS, 1% of penicillin-streptomycin and 2 mM glutamine.
(§3) Chemicals were solubilized in DMSO at a concentration of 10 mM (stock solution) and diluted in culture medium to the desired final concentrations.
(§4) The cytotoxic assay of chemical was performed at 25 µM. Cells were plated in 96 wells plates (4000 cells/well). Twenty-four hours after seeding, cells were exposed to chemicals. After 48 h of treatment, cells were washed in PBS and fixed in cooled 90% ethanol/5% acetic acid for 20 min and the nuclei were stained with Hoechst 33342 (B2261 Sigma). Image acquisition and analysis were performed using a CellomicsArrayScan VTI/HCS Reader (ThermoScientific, Waltham, MA, USA). The survival percentages were calculated as the percentage of cell number after compound treatment over cell number after DMSO treatment.

[1] = cytotoxic assay, nuclei count (Hoechst, HCS); type: cell-based, human; settings: human, human skin fibroblasts (non-cancerous reference cells); 48 h treatment; some cells add low/moderate/high amplitude; read-out: Cytotoxic studies IC50 Fibroblasts
Experimental: as §1, §2, §3, §4

Hs_GSK3β = target: T5, Hs_GSK3β (Homo sapiens, UniProt P49841); experiment: ADP-Glo kinase assay, primary screen; type: biochemical; settings: n=2, read-out: % of residual activity Hs_GSK3β
T5 construct: host or cells: Sf9 insect cells (baculovirus)

Hs_CK1ε = target: T6, Hs_CK1ε (Homo sapiens, UniProt P49674); experiment: ADP-Glo kinase assay, primary screen; type: biochemical; settings: n=2, read-out: % of residual activity Hs_CK1ε
T6 construct: host or cells: Sf9 insect cells (baculovirus)

[2] = cytotoxic assay, nuclei count (Hoechst, HCS); type: cell-based; settings: human, MDA-MB-231 cells (breast carcinoma); 48 h treatment; read-out: Cytotoxic studies IC50 MDA-MB-231
Hs_CDK5/p25 = target: T7, Hs_CDK5/p25 (Homo sapiens, UniProt Q00535); experiment: ADP-Glo kinase assay, primary screen; type: biochemical; settings: n=2, read-out: % of residual activity Hs_CDK5/p25
T7 construct: host or cells: bacteria

[3] = cytotoxic assay, nuclei count (Hoechst, HCS); type: cell-based; settings: human, 48 h treatment
Experimental: as §1, §2, §3
as §4, with “The cytotoxic assay of chemical was performed at 25 µM.” left out

[4] = cytotoxic assay, nuclei count (Hoechst, HCS); type: cell-based; settings: human, MCF7 cells (breast carcinoma); 48 h treatment; read-out: Cytotoxic studies IC50 MCF7
Experimental: as §1, §2, §3, §4

[5] = cytotoxic assay, nuclei count (Hoechst, HCS); type: cell-based; settings: human, HuH7 cells (hepatocellular carcinoma); 48 h treatment; read-out: Cytotoxic studies IC50 HuH7
Hs_HASPIN = target: T8, Hs_HASPIN (Homo sapiens, UniProt Q8TF76); experiment: ADP-Glo kinase assay, primary screen; type: biochemical; settings: n=2, read-out: % of residual activity Hs_HASPIN
T8 construct: host or cells: bacteria
T8 sequence (Q8TF76 1-798): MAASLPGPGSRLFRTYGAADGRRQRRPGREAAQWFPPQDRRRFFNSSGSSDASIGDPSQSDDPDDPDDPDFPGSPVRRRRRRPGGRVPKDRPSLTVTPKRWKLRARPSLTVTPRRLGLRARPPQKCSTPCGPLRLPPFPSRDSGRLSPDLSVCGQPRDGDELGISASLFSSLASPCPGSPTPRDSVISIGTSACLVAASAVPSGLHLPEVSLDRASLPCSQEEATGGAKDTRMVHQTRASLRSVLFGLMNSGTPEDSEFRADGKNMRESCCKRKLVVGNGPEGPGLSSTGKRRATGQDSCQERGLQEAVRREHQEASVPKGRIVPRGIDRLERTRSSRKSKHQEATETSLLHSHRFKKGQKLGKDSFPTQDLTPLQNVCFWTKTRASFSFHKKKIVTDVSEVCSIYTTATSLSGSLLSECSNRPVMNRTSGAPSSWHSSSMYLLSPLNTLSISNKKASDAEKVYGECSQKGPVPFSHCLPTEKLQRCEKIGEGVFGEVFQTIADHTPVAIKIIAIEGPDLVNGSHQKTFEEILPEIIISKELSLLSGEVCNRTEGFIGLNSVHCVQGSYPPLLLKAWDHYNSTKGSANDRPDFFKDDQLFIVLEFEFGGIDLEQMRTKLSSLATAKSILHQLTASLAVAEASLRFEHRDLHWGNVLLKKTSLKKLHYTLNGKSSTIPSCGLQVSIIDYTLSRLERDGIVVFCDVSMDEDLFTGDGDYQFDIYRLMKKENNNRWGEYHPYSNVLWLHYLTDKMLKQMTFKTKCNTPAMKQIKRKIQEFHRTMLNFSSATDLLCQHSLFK

Hs_CDK9/CyclinT = target: T9, Hs_CDK9/CyclinT (Homo sapiens, UniProt P50750); experiment: ADP-Glo kinase assay, primary screen; type: biochemical; settings: n=2, read-out: % of residual activity Hs_CDK9/CyclinT
T9 construct: host or cells: Sf9 insect cells (baculovirus)

HsDYRK1A = target: T10, HsDYRK1A (Homo sapiens, UniProt Q13627); experiment: ADP-Glo kinase assay; type: biochemical; settings: n=2, read-out: % of residual activity Hs_DYRK1A
T10 construct: host or cells: Sf9 insect cells (baculovirus)

T3 sequence (P22518 whole entry): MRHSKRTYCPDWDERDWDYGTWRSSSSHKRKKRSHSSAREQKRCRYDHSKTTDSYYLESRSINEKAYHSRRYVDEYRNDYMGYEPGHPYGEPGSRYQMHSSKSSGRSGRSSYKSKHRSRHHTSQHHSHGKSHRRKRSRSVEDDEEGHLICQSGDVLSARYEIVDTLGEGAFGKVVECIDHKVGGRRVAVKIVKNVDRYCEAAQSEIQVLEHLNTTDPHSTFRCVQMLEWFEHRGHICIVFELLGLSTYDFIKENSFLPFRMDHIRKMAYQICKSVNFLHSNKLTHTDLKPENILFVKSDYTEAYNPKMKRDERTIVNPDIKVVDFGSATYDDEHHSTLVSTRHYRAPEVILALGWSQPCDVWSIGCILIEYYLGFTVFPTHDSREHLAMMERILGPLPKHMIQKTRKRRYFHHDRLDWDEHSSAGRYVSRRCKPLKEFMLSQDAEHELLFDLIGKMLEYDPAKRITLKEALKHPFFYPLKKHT
T2 sequence (P49759 whole entry): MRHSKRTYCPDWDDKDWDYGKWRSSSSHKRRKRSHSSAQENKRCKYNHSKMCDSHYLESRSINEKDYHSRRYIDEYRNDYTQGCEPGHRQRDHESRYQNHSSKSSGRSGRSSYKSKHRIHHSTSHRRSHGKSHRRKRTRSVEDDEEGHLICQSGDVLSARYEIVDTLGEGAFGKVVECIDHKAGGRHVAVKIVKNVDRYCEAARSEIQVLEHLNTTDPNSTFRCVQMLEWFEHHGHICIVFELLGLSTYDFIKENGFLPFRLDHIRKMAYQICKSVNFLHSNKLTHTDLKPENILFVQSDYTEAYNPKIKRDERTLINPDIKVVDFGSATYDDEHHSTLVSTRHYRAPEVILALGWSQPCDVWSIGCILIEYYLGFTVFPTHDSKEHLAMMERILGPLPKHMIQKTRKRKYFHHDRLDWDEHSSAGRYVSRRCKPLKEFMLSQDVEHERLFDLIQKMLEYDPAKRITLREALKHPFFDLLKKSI
T4 sequence (P11309 whole entry): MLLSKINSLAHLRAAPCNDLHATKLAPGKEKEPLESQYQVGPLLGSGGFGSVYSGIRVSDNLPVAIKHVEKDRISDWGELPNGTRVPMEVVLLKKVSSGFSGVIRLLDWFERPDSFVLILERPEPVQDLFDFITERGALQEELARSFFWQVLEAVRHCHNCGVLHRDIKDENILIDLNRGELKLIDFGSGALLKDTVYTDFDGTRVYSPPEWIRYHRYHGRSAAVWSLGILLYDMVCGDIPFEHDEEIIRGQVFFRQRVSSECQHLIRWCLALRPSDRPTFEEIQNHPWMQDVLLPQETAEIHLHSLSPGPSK
T6 sequence (P49674 whole entry): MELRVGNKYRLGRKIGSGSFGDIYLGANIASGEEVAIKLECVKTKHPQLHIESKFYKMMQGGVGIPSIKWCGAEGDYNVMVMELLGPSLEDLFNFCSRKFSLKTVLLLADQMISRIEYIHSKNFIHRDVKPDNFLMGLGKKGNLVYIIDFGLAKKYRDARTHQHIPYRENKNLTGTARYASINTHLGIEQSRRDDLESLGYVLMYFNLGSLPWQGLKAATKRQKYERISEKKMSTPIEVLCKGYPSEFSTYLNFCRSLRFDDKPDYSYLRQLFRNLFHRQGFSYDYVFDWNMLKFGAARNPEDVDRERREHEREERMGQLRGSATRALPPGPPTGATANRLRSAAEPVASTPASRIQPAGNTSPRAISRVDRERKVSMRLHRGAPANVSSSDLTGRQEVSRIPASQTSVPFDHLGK
T9 sequence (P50750 whole entry): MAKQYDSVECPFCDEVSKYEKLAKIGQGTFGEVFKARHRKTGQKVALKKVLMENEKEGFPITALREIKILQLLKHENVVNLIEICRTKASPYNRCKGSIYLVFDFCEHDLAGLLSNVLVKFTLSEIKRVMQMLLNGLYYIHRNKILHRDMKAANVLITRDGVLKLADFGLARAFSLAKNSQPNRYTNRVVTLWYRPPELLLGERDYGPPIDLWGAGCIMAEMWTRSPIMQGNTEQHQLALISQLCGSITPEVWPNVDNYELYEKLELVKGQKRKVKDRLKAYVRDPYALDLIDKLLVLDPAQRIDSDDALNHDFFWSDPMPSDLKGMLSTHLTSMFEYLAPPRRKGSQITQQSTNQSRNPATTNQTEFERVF
T9 sequence (O60563 whole entry partner): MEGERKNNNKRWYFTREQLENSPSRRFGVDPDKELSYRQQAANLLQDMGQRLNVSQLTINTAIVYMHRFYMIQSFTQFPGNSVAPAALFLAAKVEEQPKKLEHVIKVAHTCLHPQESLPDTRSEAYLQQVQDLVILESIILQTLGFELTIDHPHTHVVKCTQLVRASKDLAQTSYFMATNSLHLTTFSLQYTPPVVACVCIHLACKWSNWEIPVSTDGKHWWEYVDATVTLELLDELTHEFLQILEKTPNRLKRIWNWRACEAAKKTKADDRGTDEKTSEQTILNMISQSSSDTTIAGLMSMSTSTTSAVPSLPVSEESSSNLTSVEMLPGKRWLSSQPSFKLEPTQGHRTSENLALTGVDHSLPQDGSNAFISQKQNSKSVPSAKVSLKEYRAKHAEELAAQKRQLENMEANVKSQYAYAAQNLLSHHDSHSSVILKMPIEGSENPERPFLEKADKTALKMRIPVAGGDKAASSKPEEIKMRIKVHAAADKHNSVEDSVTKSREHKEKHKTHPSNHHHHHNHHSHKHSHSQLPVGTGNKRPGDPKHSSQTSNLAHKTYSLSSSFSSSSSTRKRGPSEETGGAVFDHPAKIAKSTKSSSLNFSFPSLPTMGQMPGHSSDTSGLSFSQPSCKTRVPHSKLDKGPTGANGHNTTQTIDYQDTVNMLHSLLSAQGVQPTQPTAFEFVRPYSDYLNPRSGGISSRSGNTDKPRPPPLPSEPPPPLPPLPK
T7 sequence (Q00535 whole entry): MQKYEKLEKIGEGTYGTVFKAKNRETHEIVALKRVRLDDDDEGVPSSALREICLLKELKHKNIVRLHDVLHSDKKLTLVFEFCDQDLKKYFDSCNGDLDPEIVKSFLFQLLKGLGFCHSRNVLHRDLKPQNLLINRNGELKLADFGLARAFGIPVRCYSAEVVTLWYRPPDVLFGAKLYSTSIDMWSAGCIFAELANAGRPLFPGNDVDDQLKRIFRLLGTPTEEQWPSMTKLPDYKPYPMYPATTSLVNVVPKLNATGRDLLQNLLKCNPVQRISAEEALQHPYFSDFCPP
T7 sequence (Q15078 99-307 partner limits assumed): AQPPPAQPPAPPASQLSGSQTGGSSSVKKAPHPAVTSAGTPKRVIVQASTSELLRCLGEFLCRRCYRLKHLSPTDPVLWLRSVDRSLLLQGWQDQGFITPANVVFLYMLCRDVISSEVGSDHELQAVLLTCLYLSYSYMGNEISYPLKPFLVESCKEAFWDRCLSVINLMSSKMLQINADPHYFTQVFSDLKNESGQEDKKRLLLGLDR
T5 sequence (P49841 whole entry): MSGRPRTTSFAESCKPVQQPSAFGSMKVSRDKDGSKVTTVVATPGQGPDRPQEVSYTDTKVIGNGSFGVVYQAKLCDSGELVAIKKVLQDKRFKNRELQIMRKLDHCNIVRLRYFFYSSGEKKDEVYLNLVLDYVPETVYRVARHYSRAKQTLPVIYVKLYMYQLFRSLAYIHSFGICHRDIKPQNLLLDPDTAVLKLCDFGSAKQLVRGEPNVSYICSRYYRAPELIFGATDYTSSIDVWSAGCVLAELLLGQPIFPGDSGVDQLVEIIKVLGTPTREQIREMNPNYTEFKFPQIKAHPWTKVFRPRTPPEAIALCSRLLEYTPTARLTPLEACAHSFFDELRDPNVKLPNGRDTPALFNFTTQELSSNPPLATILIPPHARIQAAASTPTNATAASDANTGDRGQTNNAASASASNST

Cc1ccc(-n2cc(COc3cccc4cnc(Nc5ccccc5)nc34)nn2)c([N+](=O)[O-])c1 [7a, N-Phenyl-8-((1-(4-methyl-2-nitrophenyl)-1H-1,2,3-triazol-4-yl)methoxy)quinazolin-2-amine]
remaining activity at 1 µM (Rn_DYRK1A; 1 µM): 56% | remaining activity at 10 µM (Rn_DYRK1A; 10 µM): 90% | IC50 (HsCLK1; 10 µM ATP, duplicate, read-out: IC50 HsCLK1): 1.1 µM | times less active than DB18 on human CLK1 (HsCLK1; ratio of IC50 1100 and […] nM): 100 times | remaining activity at 1 µM (MmCLK1; 1 µM, n=2, read-out: % of residual activity Mm_CLK1): 43% | remaining activity at 10 µM (MmCLK1; 10 µM, n=2, read-out: % of residual activity Mm_CLK1): 30% | IC50 (MmCLK1; mouse CLK1 orthologue, read-out: IC50 MmCLK1): 0.466 µM | remaining activity at 1 µM (Hs_PIM1; 1 µM): 81% | remaining activity at 10 µM (Hs_PIM1; 10 µM): 60% | toxicity towards fibroblasts (Human skin fibroblasts): non-toxic | IC50 at 48 h [1]: > 25 µM | remaining activity at 1 µM (Hs_GSK3β; 1 µM): 87% | remaining activity at 10 µM (Hs_GSK3β; 10 µM): 70% | remaining activity at 1 µM (Hs_CK1ε; 1 µM): 93% | remaining activity at 10 µM (Hs_CK1ε; 10 µM): 89% | IC50 at 48 h [2]: 9 µM | remaining activity at 1 µM (Hs_CDK5/p25; 1 µM): ≥ 100% | remaining activity at 10 µM (Hs_CDK5/p25; 10 µM): 65% | IC50 at 48 h ([3]; HCT116 cells (colorectal adenocarcinoma), read-out: Cytotoxic studies IC50 HCT116): 7 µM | IC50 at 48 h ([3]; MDA-MB-468 cells (breast carcinoma), read-out: Cytotoxic studies IC50 MDA-MB-468): > 25 µM | IC50 at 48 h [4]: 7 µM | IC50 at 48 h [5]: 3 µM | remaining activity at 1 µM (Hs_HASPIN; 1 µM): 95% | remaining activity at 10 µM (Hs_HASPIN; 10 µM): 94% | remaining activity at 1 µM (Hs_CDK9/CyclinT; 1 µM): 55% | remaining activity at 10 µM (Hs_CDK9/CyclinT; 10 µM): 45% | remaining activity at 1 µM (HsDYRK1A; 1 µM): ≥ 100% | remaining activity at 10 µM (HsDYRK1A; 10 µM): 92%
